Source: patent US20160145267A1, “HETEROARYL SUBSTITUTED PYRAZOLES” (BAYER PHARMA AKTIENGESELLSCHAFT, priority 2013, published 2016)
pIC50: −log10 of the molar value. Read-outs that look alike come from different tables or passages of the source.

Columns and labels:
[1] = biological target: T1, catalytic domain of human Bub1 (amino acids 704-1085) (Homo sapiens, UniProt O43683); assay: Bub1 kinase assay (TR-FRET); format: biochemical
T1 construct: catalytic domain of human Bub1 (amino acids 704-1085); His6 (N); made in house; host or cells: Hi5 insect cells
T1 sequence (O43683 704-1085): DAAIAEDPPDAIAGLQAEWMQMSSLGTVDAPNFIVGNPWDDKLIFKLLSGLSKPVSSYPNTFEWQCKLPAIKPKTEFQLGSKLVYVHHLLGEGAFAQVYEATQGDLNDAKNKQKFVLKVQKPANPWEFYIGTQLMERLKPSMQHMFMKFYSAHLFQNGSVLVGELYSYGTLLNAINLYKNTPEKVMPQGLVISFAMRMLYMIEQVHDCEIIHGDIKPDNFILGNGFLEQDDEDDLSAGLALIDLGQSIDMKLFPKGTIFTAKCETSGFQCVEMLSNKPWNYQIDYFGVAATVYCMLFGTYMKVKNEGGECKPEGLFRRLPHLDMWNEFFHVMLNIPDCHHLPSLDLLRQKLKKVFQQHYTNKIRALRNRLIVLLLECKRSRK
Procedure: To this end, 100-fold concentrated compound solutions (in DMSO) were previously prepared by serial dilution (1:3.4) of 2 mM stocks in a clear low volume 384-well source microtiter plate (Greiner Bio-One, Frickenhausen, Germany), from which 50 nL of compounds were transferred into a black low volume test microtiter plate from the same supplier. […] The resulting mixture (5 μL final volume) was incubated at 22° C. during 60 min., and the reaction was stopped by the addition of 5 μL of an aqueous EDTA-solution (50 mM EDTA, in 100 mM HEPES pH 7.5 and 0.2% (w/v) bovine serum albumin) which also contained the TR-FRET detection reagents (0.2 μM streptavidin-XL665 [Cisbio Bioassays, Codolet, France] and 1 nM anti-phoshoSerine antibody [Merck Millipore, cat. #35-001] and 0.4 nM LANCE EU-W1024 labeled anti-mouse IgG antibody [Perkin-Elmer, product no. AD0077, alternatively a Terbium-cryptate-labeled anti-mouse IgG antibody from Cisbio Bioassays can be used]). The stopped reaction mixture was further incubated 1 h at 22° C. in order to allow the formation of complexes between peptides and detection reagents. Subsequently, the amount of product was evaluated by measurement of the resonance energy transfer from the Eu-chelate-antibody complex recognizing the Phosphoserine residue to the streptavidin-XL665 bound to the biotin moiety of the peptide.

HeLa cell line = assay: Proliferation assay (HeLa cell line); format: cell-based; settings: Homo sapiens, 96 h, read-out: Biological Assay 2: Proliferation assay (HeLa cell line) median IC50
Procedure: Cultivated tumor cells (cells were ordered from ATCC, except HeLa-MaTu and HeLa-MaTu-ADR, which were ordered from EPO-GmbH, Berlin) were plated at a density of 1000 to 5000 cells/well, depending on the growth rate of the respective cell line, in a 96-well multititer plate in 200 μL of their respective growth medium supplemented 10% fetal calf serum. After 24 hours, the cells of one plate (zero-point plate) were stained with crystal violet (see below), while the medium of the other plates was replaced by fresh culture medium (200 μL), to which the test substances were added in various concentrations (0 μM, as well as in the range of 0.001-10 μM; the final concentration of the solvent dimethyl sulfoxide was 0.5%). The cells were incubated for 4 days in the presence of test substances. Cell proliferation was determined by staining the cells with crystal violet: the cells were fixed by adding 20 μL/measuring point of an 11% glutaric aldehyde solution for 15 minutes at room temperature. After three washing cycles of the fixed cells with water, the plates were dried at room temperature. The cells were stained by adding 100 μL/measuring point of a 0.1% crystal violet solution (pH 3.0). After three washing cycles of the stained cells with water, the plates were dried at room temperature. The dye was dissolved by adding 100 μl/measuring point of a 10% acetic acid solution. Absorbtion was determined by photometry at a wavelength of 595 nm. The change of cell number, in percent, was calculated by normalization of the measured values to the absorbtion values of the zero-point plate (=0%) and the absorbtion of the untreated (0 μm) cells (=100%). The IC50 values were determined by means of a 4 parameter fit.

[2] = 4 days incubation, crystal violet staining
[3] = 10 μM ATP, 1 μM peptide substrate, TR-FRET, read-out: Biological Assay 1: Bub1 kinase assay median IC50

Row | pIC50 [1] | pIC50 (HeLa cell line; [2]) | pIC50 [1, 3] | pIC50 (HeLa cell line) | SMILES
1 | 7.92 | 5.22 |  |  | CCOc1cc(F)c(Cn2nc(-c3nc(N)nc(Nc4ccncn4)n3)c(C)c2C2CC2)c(F)c1 [Example 2-1-9, 6-[5-cyclopropyl-1-(4-ethoxy-2,6-difluorobenzyl)-4-methyl-1H-pyrazol-3-yl]-N-(pyrimidin-4-yl)-1,3,5-triazine-2,4-diamine]
2 |  |  | 7.72 | 5.28 | CCNC(=O)Nc1c(N)nc(-c2nn(Cc3c(F)cc(OCC)cc3F)c(C3CC3)c2C)nc1Nc1ccncc1 [Example 2-1-29, 1-{4-amino-2-[5-cyclopropyl-1-(4-ethoxy-2,6-difluorobenzyl)-4-methyl-1H-pyrazol-3-yl]-6-(pyridin-4-ylamino)pyrimidin-5-yl}-3-ethylurea]
3 | 6.04 | 5.48 |  |  | CCOc1cc(F)c(Cn2nc(-c3nc(NC(=O)NC4CCCCC4)c(N4CCOCC4)c(Nc4ccncc4)n3)c(C)c2C2CC2)c(F)c1 [Example 2-1-20, 1-cyclohexyl-3-{2-[5-cyclopropyl-1-(4-ethoxy-2,6-difluorobenzyl)-4-methyl-1H-pyrazol-3-yl]-5-(morpholin-4-yl)-6-(pyridin-4-ylamino)pyrimidin-4-yl}urea]
4 |  |  | 7.92 | < 5.00 | CCOc1cc(F)c(Cn2nc(-c3nc4c(c(Nc5ccncc5)n3)OCC(=O)N4)c(C)c2C2CC2)c(F)c1 [Example 2-1-32, 2-[5-cyclopropyl-1-(4-ethoxy-2,6-difluorobenzyl)-4-methyl-1H-pyrazol-3-yl]-4-(pyridin-4-ylamino)-6H-pyrimido[5,4-b][1,4]oxazin-7(8H)-one]
5 |  |  | 5.85 | 5.26 | CCOc1cc(F)c(Cn2nc(-c3nc(NC(=O)NC4CCCCC4)c(OC)c(Nc4ccncn4)n3)c(C)c2C2CC2)c(F)c1 [Example 2-1-17, 1-cyclohexyl-3-{2-[5-cyclopropyl-1-(4-ethoxy-2,6-difluorobenzyl)-4-methyl-1H-pyrazol-3-yl]-5-methoxy-6-(pyrimidin-4-ylamino)pyrimidin-4-yl}urea]
6 |  |  | 6.59 | 5.12 | CCOc1cc(F)c(Cn2nc(-c3nc(N)cc(Nc4ccnc(OC)c4)n3)c(C)c2C2CC2)c(F)c1 [Example 2-1-2, 2-[5-cyclopropyl-1-(4-ethoxy-2,6-difluorobenzyl)-4-methyl-1H-pyrazol-3-yl]-N-(2-methoxypyridin-4-yl)pyrimidine-4,6-diamine]
7 | 6.00 | 5.00 |  |  | CCOc1cc(F)c(Cn2nc(-c3nc(Nc4ccnnc4)cc(Nc4ccnnc4)n3)c(C)c2C2CC2)c(F)c1 [Example 2-2-10, 2-[5-cyclopropyl-1-(4-ethoxy-2,6-difluorobenzyl)-4-methyl-1H-pyrazol-3-yl]-N,N′-di(pyridazin-4-yl)pyrimidine-4,6-diamine]
8 | 7.23 | 5.01 |  |  | C=CC(=O)Nc1cc(Nc2ccncc2)nc(-c2nn(Cc3c(F)cc(OCC)cc3F)c(C3CC3)c2C)n1 [Example 2-1-22, N-{2-[5-cyclopropyl-1-(4-ethoxy-2,6-difluorobenzyl)-4-methyl-1H-pyrazol-3-yl]-6-(pyridin-4-ylamino)pyrimidin-4-yl}prop-2-enamide]
9 |  |  | 8.20 | 5.51 | CCOc1cc(F)c(Cn2nc(-c3nc(N)cc(Nc4ccncn4)n3)c(C)c2C2CC2)c(F)c1 [Example 2-1-3, 2-[5-cyclopropyl-1-(4-ethoxy-2,6-difluorobenzyl)-4-methyl-1H-pyrazol-3-yl]-N-(pyrimidin-4-yl)pyrimidine-4,6-diamine]
10 |  |  | 7.80 | < 5.00 | CCOc1cc(F)c(Cn2nc(-c3nc(N)c(NC(=O)COC)c(Nc4ccncc4)n3)c(C)c2C2CC2)c(F)c1 [Example 2-1-27, N-{4-amino-2-[5-cyclopropyl-1-(4-ethoxy-2,6-difluorobenzyl)-4-methyl-1H-pyrazol-3-yl]-6-(pyridin-4-ylamino)pyrimidin-5-yl}-2-methoxyacetamide]
